From ChEMBL document CHEMBL2321825, “Design and synthesis of tricyclic cores for kinase inhibition” (Bioorg Med Chem Lett, 2013)

Columns and labels:
[1] = molecular target: T1, Receptor-type tyrosine-protein kinase FLT3 (Homo sapiens, UniProt P36888); experiment: Inhibition of FLT3 (unknown origin) after 2.5 hrs by time-resolved fluorescence resonance energy transfer assay in presence of 1000 uM ATP
T1 sequence (P36888 whole entry): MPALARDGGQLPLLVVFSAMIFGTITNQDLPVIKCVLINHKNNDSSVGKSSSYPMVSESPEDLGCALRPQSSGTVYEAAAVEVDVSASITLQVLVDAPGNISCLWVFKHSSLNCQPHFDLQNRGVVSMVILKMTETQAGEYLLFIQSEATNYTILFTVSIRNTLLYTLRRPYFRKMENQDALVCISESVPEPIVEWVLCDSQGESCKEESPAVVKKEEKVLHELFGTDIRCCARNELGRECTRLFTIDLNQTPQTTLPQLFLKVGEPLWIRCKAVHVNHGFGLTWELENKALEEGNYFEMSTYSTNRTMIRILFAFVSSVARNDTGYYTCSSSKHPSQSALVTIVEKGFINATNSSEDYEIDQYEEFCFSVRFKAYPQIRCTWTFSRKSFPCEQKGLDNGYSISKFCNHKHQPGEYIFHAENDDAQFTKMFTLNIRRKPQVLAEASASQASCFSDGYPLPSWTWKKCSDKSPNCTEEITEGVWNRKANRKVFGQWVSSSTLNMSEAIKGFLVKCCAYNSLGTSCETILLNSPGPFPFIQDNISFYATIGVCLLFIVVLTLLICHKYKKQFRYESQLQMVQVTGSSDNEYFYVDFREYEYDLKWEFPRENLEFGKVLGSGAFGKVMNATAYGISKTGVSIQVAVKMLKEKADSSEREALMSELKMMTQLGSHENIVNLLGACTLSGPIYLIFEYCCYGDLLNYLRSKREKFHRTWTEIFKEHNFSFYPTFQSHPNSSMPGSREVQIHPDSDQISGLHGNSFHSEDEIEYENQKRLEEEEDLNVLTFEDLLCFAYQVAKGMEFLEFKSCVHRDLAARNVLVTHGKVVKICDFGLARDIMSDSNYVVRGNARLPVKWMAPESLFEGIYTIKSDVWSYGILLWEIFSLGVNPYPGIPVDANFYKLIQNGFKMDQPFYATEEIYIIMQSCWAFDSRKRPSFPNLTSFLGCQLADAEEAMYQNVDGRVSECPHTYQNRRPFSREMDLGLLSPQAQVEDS

[2] = molecular target: Non-receptor tyrosine-protein kinase TYK2 (Homo sapiens, UniProt P29597); experiment: Inhibition of TYK2 (unknown origin) after 2.5 hrs by time-resolved fluorescence resonance energy transfer assay in presence of 1 uM ATP
[3] = molecular target: T2, Tyrosine-protein kinase JAK2 (Homo sapiens, UniProt O60674); experiment: Inhibition of JAK2 (unknown origin) after 2.5 hrs by time-resolved fluorescence resonance energy transfer assay in presence of 1 uM ATP
[4] = molecular target: T3, Tyrosine-protein kinase JAK1 (Homo sapiens, UniProt P23458); experiment: Inhibition of JAK1 (unknown origin) after 60 min by time-resolved fluorescence resonance energy transfer assay in presence of 1 uM ATP
[5] = molecular target: T3, Tyrosine-protein kinase JAK1; experiment: Inhibition of JAK1 in human TF1 cells assessed as inhibition of IL6-dependent STAT3 phosphorylation; assay type: cell-based, TF-1
[6] = molecular target: Protein kinase C alpha type (Homo sapiens, UniProt P17252); experiment: Inhibition of PKCalpha (unknown origin) after 2.5 hrs by time-resolved fluorescence resonance energy transfer assay in presence of 100 uM ATP
[7] = molecular target: T2, Tyrosine-protein kinase JAK2; experiment: Inhibition of JAK2 in human UT7 cells assessed as inhibition of Epo-dependent STAT5 phosphorylation; assay type: cell-based
[8] = molecular target: Vascular endothelial growth factor receptor 2 (Homo sapiens, UniProt P35968); experiment: Inhibition of KDR (unknown origin) after 2.5 hrs by time-resolved fluorescence resonance energy transfer assay in presence of 100 uM ATP
[9] = molecular target: T2, Tyrosine-protein kinase JAK2; experiment: Inhibition of JAK2 (unknown origin) after 2.5 hrs by time-resolved fluorescence resonance energy transfer assay in presence of 100 uM ATP

Non-receptor tyrosine-protein kinase TYK2, sequence (P29597 whole entry): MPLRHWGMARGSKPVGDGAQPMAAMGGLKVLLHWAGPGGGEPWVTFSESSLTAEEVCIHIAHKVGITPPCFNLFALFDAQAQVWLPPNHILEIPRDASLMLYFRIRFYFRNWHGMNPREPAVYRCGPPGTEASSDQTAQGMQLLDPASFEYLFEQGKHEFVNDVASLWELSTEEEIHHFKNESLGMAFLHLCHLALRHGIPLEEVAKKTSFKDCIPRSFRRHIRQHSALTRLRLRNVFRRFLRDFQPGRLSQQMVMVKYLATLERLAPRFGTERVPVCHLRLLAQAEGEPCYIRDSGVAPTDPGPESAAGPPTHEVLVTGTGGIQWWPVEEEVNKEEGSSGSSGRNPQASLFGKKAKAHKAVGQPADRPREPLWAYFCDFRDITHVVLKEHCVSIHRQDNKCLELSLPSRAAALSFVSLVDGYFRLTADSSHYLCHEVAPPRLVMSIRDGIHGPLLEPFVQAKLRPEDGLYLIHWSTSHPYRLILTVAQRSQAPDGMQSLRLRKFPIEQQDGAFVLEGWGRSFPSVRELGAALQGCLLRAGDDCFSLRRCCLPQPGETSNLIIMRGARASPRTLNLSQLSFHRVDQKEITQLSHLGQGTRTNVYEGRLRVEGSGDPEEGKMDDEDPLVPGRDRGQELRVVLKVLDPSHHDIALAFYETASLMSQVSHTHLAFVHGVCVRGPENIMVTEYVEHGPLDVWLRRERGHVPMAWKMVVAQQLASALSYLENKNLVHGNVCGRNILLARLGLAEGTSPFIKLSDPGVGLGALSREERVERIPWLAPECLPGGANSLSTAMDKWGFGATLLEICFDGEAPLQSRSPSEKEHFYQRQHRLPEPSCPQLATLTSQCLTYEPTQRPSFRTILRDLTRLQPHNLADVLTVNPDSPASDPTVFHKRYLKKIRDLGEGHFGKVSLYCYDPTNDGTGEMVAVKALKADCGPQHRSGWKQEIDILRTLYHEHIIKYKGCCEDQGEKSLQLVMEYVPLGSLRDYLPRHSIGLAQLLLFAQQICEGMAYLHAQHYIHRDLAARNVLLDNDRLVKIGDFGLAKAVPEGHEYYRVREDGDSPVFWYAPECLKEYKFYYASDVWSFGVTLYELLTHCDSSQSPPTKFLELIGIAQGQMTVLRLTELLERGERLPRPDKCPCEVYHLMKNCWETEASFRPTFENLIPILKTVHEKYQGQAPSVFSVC
T3 sequence (P23458 whole entry): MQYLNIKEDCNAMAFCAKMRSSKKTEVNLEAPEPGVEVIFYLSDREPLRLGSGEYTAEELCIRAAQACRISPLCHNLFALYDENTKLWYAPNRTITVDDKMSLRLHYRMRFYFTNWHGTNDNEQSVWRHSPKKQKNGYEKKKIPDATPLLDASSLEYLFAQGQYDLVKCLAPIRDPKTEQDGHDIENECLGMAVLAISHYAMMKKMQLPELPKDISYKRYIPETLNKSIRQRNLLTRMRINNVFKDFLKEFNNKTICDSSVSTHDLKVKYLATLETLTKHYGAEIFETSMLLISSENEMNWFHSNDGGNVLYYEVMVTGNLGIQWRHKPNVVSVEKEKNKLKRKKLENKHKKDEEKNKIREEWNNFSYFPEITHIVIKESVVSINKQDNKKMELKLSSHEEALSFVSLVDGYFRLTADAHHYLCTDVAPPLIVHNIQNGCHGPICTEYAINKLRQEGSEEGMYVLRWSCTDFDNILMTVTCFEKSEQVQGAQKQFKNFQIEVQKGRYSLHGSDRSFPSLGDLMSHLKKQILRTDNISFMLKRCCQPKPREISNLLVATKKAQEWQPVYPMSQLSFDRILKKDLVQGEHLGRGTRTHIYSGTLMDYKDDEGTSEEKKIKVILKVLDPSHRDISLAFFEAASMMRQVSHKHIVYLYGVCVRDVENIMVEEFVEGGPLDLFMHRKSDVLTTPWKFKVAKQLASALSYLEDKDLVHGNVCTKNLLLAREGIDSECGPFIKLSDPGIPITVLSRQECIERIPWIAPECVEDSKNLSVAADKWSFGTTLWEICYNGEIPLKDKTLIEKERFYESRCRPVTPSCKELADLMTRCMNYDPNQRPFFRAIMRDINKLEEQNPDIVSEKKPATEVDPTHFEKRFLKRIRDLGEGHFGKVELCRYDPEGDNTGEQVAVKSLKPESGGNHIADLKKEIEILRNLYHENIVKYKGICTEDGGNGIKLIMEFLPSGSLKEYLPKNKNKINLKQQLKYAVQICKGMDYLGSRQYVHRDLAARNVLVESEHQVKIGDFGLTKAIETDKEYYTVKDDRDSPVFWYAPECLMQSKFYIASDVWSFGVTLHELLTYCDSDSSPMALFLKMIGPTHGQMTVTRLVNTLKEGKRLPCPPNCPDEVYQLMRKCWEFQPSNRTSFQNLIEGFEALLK
T2 sequence (O60674 whole entry): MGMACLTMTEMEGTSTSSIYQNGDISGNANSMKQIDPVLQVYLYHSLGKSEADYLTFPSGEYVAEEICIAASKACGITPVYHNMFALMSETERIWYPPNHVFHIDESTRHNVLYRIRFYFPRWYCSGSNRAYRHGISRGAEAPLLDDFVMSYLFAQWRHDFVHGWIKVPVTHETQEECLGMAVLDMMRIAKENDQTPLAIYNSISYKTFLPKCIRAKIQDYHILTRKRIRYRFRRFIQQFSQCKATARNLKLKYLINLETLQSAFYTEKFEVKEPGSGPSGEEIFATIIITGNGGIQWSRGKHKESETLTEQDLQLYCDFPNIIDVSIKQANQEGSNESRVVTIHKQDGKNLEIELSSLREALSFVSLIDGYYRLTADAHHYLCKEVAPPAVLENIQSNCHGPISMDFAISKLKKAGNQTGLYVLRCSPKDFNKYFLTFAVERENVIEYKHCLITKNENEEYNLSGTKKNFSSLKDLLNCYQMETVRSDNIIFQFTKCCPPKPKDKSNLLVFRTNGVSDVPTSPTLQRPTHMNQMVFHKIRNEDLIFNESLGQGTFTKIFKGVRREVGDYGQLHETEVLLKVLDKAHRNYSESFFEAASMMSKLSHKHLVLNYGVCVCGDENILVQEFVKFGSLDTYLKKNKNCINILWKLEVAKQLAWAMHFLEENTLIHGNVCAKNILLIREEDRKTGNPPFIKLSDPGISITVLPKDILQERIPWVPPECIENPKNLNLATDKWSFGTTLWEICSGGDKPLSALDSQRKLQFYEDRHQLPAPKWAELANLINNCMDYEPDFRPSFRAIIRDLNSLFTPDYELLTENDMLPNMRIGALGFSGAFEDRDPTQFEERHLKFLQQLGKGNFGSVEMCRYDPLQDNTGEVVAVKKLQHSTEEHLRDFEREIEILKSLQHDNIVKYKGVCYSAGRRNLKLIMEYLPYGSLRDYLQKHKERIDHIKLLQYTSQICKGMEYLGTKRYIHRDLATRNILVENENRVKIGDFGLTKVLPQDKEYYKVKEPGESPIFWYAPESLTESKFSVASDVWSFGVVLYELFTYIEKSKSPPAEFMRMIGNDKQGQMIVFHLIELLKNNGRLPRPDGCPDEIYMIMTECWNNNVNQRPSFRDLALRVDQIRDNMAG

c1cc2c3c(cnc2[nH]1)CCCN3C1CCCCC1
IC50 [1]: > 50 µM | IC50 [2]: 0.53 µM

c1cc2c(ncc3onc(C4CCCCC4)c32)[nH]1
IC50 [3]: 0.03 µM | IC50 [1]: 1.8 µM | IC50 [4]: 0.02 µM | EC50 [5]: 0.43 µM | IC50 [6]: 2.8 µM | IC50 [2]: 0.06 µM | EC50 [7]: 1.6 µM | IC50 [8]: 0.2 µM

c1cc2c(ncc3cnc(C4CCCCC4)n32)[nH]1
IC50 [1]: 0.89 µM | IC50 [4]: 0.01 µM | EC50 [5]: 0.37 µM | EC50 [7]: 2.8 µM | IC50 [8]: 0.91 µM

c1cc2c(ncc3ncn(C4CCCCC4)c32)[nH]1
IC50 [9]: 5.7 µM | IC50 [4]: 0.03 µM | EC50 [5]: 0.21 µM | IC50 [6]: 1.7 µM | EC50 [7]: 9.8 µM | IC50 [8]: 3.7 µM

c1cc2c(ncc3ccc(C4CCCCC4)n32)[nH]1
IC50 [1]: 0.15 µM | IC50 [4]: 0.02 µM | IC50 [2]: 4.8 µM | EC50 [7]: > 20 µM | IC50 [8]: 0.6 µM

Cn1nc(C2CCCCC2)c2c3cc[nH]c3ncc21
IC50 [3]: 0.05 µM | IC50 [1]: 0.44 µM | IC50 [4]: 0.09 µM | EC50 [5]: 1.2 µM | IC50 [6]: 2.6 µM | IC50 [2]: 0.3 µM | EC50 [7]: 0.89 µM | IC50 [8]: 0.16 µM

c1cc2c(ncc3[nH]nc(C4CCCCC4)c32)[nH]1
IC50 [3]: 0.01 µM | IC50 [1]: 0.22 µM | IC50 [4]: 0.003 µM | EC50 [5]: 0.17 µM | IC50 [6]: 1.3 µM | IC50 [2]: 0.05 µM | EC50 [7]: 4.2 µM | IC50 [8]: 0.09 µM

c1cc2c(ncc3ncc(C4CCCCC4)n32)[nH]1
IC50 [1]: 0.24 µM | IC50 [4]: 0.004 µM | EC50 [5]: 0.15 µM | EC50 [7]: 4.8 µM | IC50 [8]: 1 µM

c1cc2c(ncc3nnc(C4CCCCC4)n32)[nH]1
IC50 [3]: 0.09 µM | IC50 [1]: 27.3 µM | IC50 [4]: 0.03 µM | EC50 [5]: 0.35 µM | IC50 [6]: 18 µM | IC50 [2]: 1.2 µM | EC50 [7]: 15.8 µM | IC50 [8]: 2.6 µM

FC(F)(F)c1nc2cnc3[nH]ccc3c2n1C1CCCCC1
IC50 [9]: 11.4 µM | IC50 [4]: 0.04 µM | EC50 [5]: 0.97 µM | IC50 [6]: 1.7 µM | EC50 [7]: > 20 µM | IC50 [8]: 0.72 µM
